Patent US20220204539A1, “CD73 INHIBITORS” (BioArdis LLC, priority 2019, published 2022)

Target: T1, Recombinant Human 5′-Nucleotidase (CD73) (Homo sapiens, UniProt P21589)
T1 construct: CHO derived CD73 (Trp27-Lys547), with a C-terminal 6-His tag; 6-His (C); purchased R&D 5795-EN; host or cells: CHO
T1 sequence (P21589 27-547): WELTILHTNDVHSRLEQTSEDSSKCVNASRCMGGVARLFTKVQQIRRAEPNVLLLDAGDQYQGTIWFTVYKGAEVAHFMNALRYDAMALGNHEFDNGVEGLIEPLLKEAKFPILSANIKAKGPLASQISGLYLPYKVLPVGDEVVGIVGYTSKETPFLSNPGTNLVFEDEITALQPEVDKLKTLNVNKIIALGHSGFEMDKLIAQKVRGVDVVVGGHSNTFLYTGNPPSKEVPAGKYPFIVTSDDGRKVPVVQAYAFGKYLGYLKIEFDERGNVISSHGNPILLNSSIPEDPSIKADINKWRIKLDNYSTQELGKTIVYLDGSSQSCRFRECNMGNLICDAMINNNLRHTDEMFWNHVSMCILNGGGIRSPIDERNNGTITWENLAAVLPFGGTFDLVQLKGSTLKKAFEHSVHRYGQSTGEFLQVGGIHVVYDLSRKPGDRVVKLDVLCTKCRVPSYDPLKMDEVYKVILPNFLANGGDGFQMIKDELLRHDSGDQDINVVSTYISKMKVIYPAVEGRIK
Assay: CD73 Enzyme Assay
Format: biochemical
Conditions: human CD73 0.5 nM, AMP 30 μM, PiColorLock phosphate detection; read-out: Potency (IC50, CD73 enzyme assay)
Text: Soluble recombinant CD73 catalyzes the conversion of adenosine monophosphate (AMP) to adenosine and inorganic phosphate. The phosphate detection reagent, PiColorLock™ (Innova Bioscience, Cat #303-0125) is based on the change in absorbance of the dye malachite green in the presence of inorganic phosphate (Pi) and this property can be exploited to measure any enzyme that generates Pi. Recombinant Human 5′-Nucleotidase (CD73) (R&D #5795-EN, CHO derived CD73 (Trp27-Lys547), with a C-terminal 6-His tag) was used in the enzymatic assay. This assay was run in a 384-well plate format (Corning® NBS™ 384 well plates, Cat #3640). The basic assay procedure involves two steps: 1) Enzyme reaction: The CD73 enzyme (R&D #5795-EN) is incubated in the presence or absence of compounds. AMP (sigma, cat #01930) is added to start the […] reaction. 2) Detection step: Gold mix is added to the assay system, then stabilizers are added. After incubation the absorbance of the solution is read at OD 635 nm. The recorded OD signal is proportional to the enzyme activity.
Briefly, 25 μl human CD73 (0.5 nM final concentration) in the enzymatic buffer solutions (20 mM Tris, 25 mM NaCl, 1 mM MgCl2, pH 7.5, 0.005% Tween-20) were mixed with various concentrations of the test compound (dissolved in 100% DMSO). These solutions were incubated for 15 min at 25° C., and subsequently 25 μl AMP (30 μM final concentration) was added to start the reaction. The final reaction mixture of enzyme-substrate-compound was incubated for 20 min at 37° C. Meanwhile ‘Gold mix’ was prepared shortly before use by adding 1/100 vol. of accelerator to the PiColorLock™ Gold reagent. 12 μL/well of the ‘Gold mix’ was added to assay plate containing 50 μL enzyme reaction buffer and incubated at 25° C. for 5 min. 5 μL/well stabilizer was added to the assay plate and incubated at 25° C. for 30 min. The absorbance of the well solutions was measured at 635 nm on a Spark 10M instrument (TECAN).
The percent (%) inhibition at each concentration of a compound was calculated relative to the OD value in the Max and Min control wells contained within each assay plate. The Max control wells contained enzyme and substrate as 0% inhibition, and the M control wells only contained substrate without enzyme as 100% inhibition. The concentrations and percent inhibition values for a test compound are plotted and the concentration of the compound required to achieve 50% inhibition (IC50) was determined with a four-parameter logistic dose response equation.

| IC50 [nM] | Structure (SMILES) |
| --- | --- |
| > 1000 | O=P(O)(O)CP(=O)(O)OC[C@H]1OC(c2cnc3c(NCc4ccccc4)ncnn23)[C@@H](F)[C@@H]1O (stereo in doubt) [Compound 3, [({[(2R,3R,4S,5S)-5-[4-(benzylamino)imidazo[2,1-f][1,2,4]triazin-7-yl]-4-fluoro-3-hydroxyoxolan-2-yl]methoxy}(hydroxy)phosphoryl)methyl]phosphonic Acid] |
| > 1000 | O=P(O)(O)CP(=O)(O)OC[C@H]1O[C@H](c2cnc3c(NCc4ccccc4)ncnn23)[C@@H](F)[C@@H]1O [Compound 4, [({[(2R,3R,4S,5R)-5-[4-(benzylamino)imidazo[2,1-f][1,2,4]triazin-7-yl]-4-fluoro-3-hydroxyoxolan-2-yl]methoxy}(hydroxy)phosphoryl)methyl]phosphonic Acid] |
| 10 to 99 | O=P(O)(O)CP(=O)(O)OC[C@H]1O[C@@H](c2cnc3c(NC4CCCC4)nc(Cl)nn23)[C@@H](F)[C@@H]1O [Compound 7, (((((2R,3R,4S,5S)-5-(2-chloro-4-(cyclopentylamino)imidazo[2,1-f][1,2,4]triazin-7-yl)-4-fluoro-3-hydroxytetrahydrofuran-2-yl)methoxy)(hydroxy)phosphoryl)methyl)phosphonic acid] |
| 10 to 99 | O=P(O)(O)CP(=O)(O)OC[C@H]1O[C@@H](c2cnc3c(NCC4CCCO4)nc(Cl)nn23)[C@H](O)[C@@H]1O (stereo partly drawn) [Compound 13, (((((2R,3S,4R,1S)-5-(2-chloro-4-(((tetrahydrofuran-2-yl)methyl)amino)imidazo[2,1-f][1,2,4]triazin-7-yl)-3,4-dihydroxytetrahydrofuran-2-yl)methoxy)(hydroxy)phosphoryl)methyl) phosphonic Acid] |
| 10 to 99 | CN(C)[C@H]1CC[C@H](Nc2nc(Cl)nn3c([C@@H]4O[C@H](COP(=O)(O)CP(=O)(O)O)[C@@H](O)[C@H]4O)cnc23)C1 [Compound 25, (((((2R,3S,4R,5S)-5-(2-chloro-4-(((1S,3S)-3-(dimethylamino)cyclopentyl)amino)imidazo[2,1-f][1,2,4]triazin-7-yl)-3,4-dihydroxytetrahydrofuran-2-yl)methoxy)(hydroxy)phosphoryl)methyl)phosphonic acid] |
| 10 to 99 | O=C1C[C@H](Nc2nc(Cl)nn3c([C@@H]4O[C@H](COP(=O)(O)CP(=O)(O)O)[C@@H](O)[C@H]4O)cnc23)CN1 [Compound 26, [({[(2R,3S,4R,5S)-5-{2-chloro-4-[(5-oxopyrrolidin-3-yl)amino]imidazo[2,1-f][1,2,4]triazin-7-yl}-3,4-dihydroxyoxolan-2-yl]methoxy}(hydroxy)phosphoryl)methyl]phosphonic acid] |
| 10 to 99 | O=P(O)(O)CP(=O)(O)OC[C@H]1O[C@@H](c2cnc3c(N4CCC[C@@H]4c4ccccc4)nc(Cl)nn23)[C@H](O)[C@@H]1O [Compound 31, [({[(2R,3S,4R,5S)-5-{2-chloro-4-[(2R)-2-phenylpyrrolidin-1-yl]imidazo[2,1-f][1,2,4]triazin-7-yl}-3,4-dihydroxyoxolan-2-yl]methoxy}(hydroxy)phosphoryl)methyl]phosphonic Acid] |
| 10 to 99 | CC(C)(C)[C@@H]1CCCN1c1nc(Cl)nn2c([C@@H]3O[C@H](COP(=O)(O)CP(=O)(O)O)[C@@H](O)[C@H]3O)cnc12 [Compound 38, (((((2R,3S,4R,1S)-5-(4-((S)-2-(tert-butyl)pyrrolidin-1-yl)-2-chloroimidazo[2,1-f][1,2,4]triazin-7-yl)-3,4-dihydroxytetrahydrofuran-2-yl)methoxy)(hydroxy)phosphoryl)methyl)phosphonic Acid] |
| 10 to 99 | CC(C)(C)[C@H]1CCCN1c1nc(Cl)nn2c([C@@H]3O[C@H](COP(=O)(O)CP(=O)(O)O)[C@@H](O)[C@H]3O)cnc12 [Compound 51, (((((2R,3S,4R,1S)-5-(4-((R)-2-(tert-butyl)pyrrolidin-1-yl)-2-chloroimidazo[2,1-f][1,2,4]triazin-7-yl)-3,4-dihydroxytetrahydrofuran-2-yl)methoxy)(hydroxy)phosphoryl)methyl)phosphonic Acid] |
| 100 to 999 | O=P(O)(CP1(=O)OCC[C@@H](c2cccc(Cl)c2)O1)OC[C@H]1O[C@@H](c2cnc3c(NC4CCCC4)nc(Cl)nn23)[C@H](O)[C@@H]1O (stereo partly drawn) [Compound 58, ((2R,3S,4R,5S)-5-(2-chloro-4-(cyclopentylamino)imidazo[2,1-f][1,2,4]triazin-7-yl)-3,4-dihydroxytetrahydrofuran-2-yl)methyl hydrogen (((4S)-4-(3-chlorophenyl)-2-oxido-1,3,2-dioxaphosphinan-2-yl)methyl)phosphonate] |
| 100 to 999 | O=P(O)(O)CP(=O)(O)OC[C@H]1O[C@@H](c2cnc3c(NC4CCCC4)nc(C4CC4)nn23)[C@H](O)[C@@H]1O [Compound 60, (((((2R,3S,4R,1S)-5-(4-(cyclopentylamino)-2-cyclopropylimidazo[2,1-f][1,2,4]triazin-7-yl)-3,4-dihydroxytetrahydrofuran-2-yl)methoxy)(hydroxy)phosphoryl)methyl)phosphonic Acid] |
| 100 to 999 | O=P(O)(O)CP(=O)(O)OC[C@H]1O[C@@H](c2cnc3c(OC4CCCC4)ncnn23)[C@H](O)[C@@H]1O [Compound 61, (((((2R,3S,4R,1S)-5-(4-(cyclopentyloxy)imidazo[2,1-f][1,2,4]triazin-7-yl)-3,4-dihydroxytetrahydrofuran-2-yl)methoxy)(hydroxy)phosphoryl)methyl)phosphonic Acid] |
| 10 to 99 | COCCOCCOP(=O)(CP(=O)(O)O)OC[C@H]1O[C@@H](c2cnc3c(NC4CCCC4)nc(Cl)nn23)[C@H](O)[C@@H]1O (stereo partly drawn) [Compound 67, (((((2R,3S,4R,5S)-5-(2-chloro-4-(cyclopentylamino)imidazo[2,1-f][1,2,4]triazin-7-yl)-3,4-dihydroxytetrahydrofuran-2-yl)methoxy)(2-(2-methoxyethoxy)ethoxy)phosphoryl)methyl)phosphonic acid] |
| 10 to 99 | N#CCCOP(=O)(CP(=O)(O)O)OC[C@H]1O[C@@H](c2cnc3c(NC4CCCC4)nc(Cl)nn23)[C@H](O)[C@@H]1O (stereo partly drawn) [Compound 69, (((((2R,3S,4R,5S)-5-(2-chloro-4-(cyclopentylamino)imidazo[2,1-f][1,2,4]triazin-7-yl)-3,4-dihydroxytetrahydrofuran-2-yl)methoxy)(2-cyanoethoxy)phosphoryl)methyl) phosphonic acid] |

| Structure (SMILES) | IC50 [nM] |
| --- | --- |
| COP(=O)(CP(=O)(OC)OC[C@H]1O[C@@H](c2cnc3c(NC4CCCC4)nc(Cl)nn23)[C@H](O)[C@@H]1O)OC (stereo partly drawn) [Compound 57, ((2R,3S,4R,5S)-5-(2-chloro-4-(cyclopentylamino)imidazo[2,1-f][1,2,4]triazin-7-yl)-3,4-dihydroxytetrahydrofuran-2-yl)methyl methyl ((dimethoxyphosphoryl)methyl)phosphonate] | > 1000 |
| COP(=O)(CP1(=O)OCC[C@@H](c2cccc(Cl)c2)O1)OC[C@H]1O[C@@H](c2cnc3c(NC4CCCC4)nc(Cl)nn23)[C@H](O)[C@@H]1O (stereo partly drawn) [Compound 59, ((2R,3S,4R,5S)-5-(2-chloro-4-(cyclopentylamino)imidazo[2,1-f][1,2,4]triazin-7-yl)-3,4-dihydroxytetrahydrofuran-2-yl)methyl methyl (((4S)-4-(3-chlorophenyl)-2-oxido-1,3,2-dioxaphosphinan-2-yl)methyl)phosphonate] | > 1000 |
